Data on 78 compounds can be found in US20120010177A1, “MicroRNA Modulators and Method for Identifying And Using The Same” (The Wistar Institute / North Carolina State University, priority 2008, published 2012).

The first test deals with miR-21. In words: High throughput primary miR-21 FLuc reporter assay (concentration-response). To be noted: Homo sapiens, HeLa, 48 h, HeLa Luc-miR-21 reporter, 48-hour incubation; read-out: AC50. The test is classed as cell-based, human. The method, then: Primary miR-21 Assay. The primary miR-21 FLuc reporter assay is carried out with HeLa cells expressing the Luc-miR-21 reporter using a 48-hour incubation time. Active compounds that increase the luciferase response are identified based upon inhibition of miR-21.
SAR. The concentration-response data for the entire high throughput screen is plotted and modeled by a four parameter logistic fit and SAR analysis is performed according to conventional approaches (Iglese, et al. (2006) Proc. Natl. Acad. Sci. USA […]:11473-8). In brief, Class 1.1 and 1.2 are full curves containing upper and lower asymptotes with efficacy ≧80% and <80%, respectively. Class 2.1 and 2.2 are incomplete curves having only one asymptote with efficacy ≧80% and <80%, respectively. Class 3 curves show activity at only the highest concentration or are poorly fit. […] For SAR analysis, compounds associated with Class 1 and 2.1 curves are clustered using LEADSCOPE® fingerprints. […] Compounds sharing a common scaffold form a series. Candidate series and singletons are chosen for follow up studies. For each lead or series, an appropriate library design method (e.g., point substitution library or matrix library) is selected. Typically, precursors are synthesized and a library of 15-25 compounds is produced for analysis in the above-described assays.
(A reporter such as luciferase makes a cellular process visible.)
`Cc1cc(C)n2nc(SCCOc3ccccc3F)nc2n1` [Compound 47]: the AC50 was found to be 11.7 µM. Still for that read-out and setting: the value for `COc1ccccc1C(=O)n1nc(-c2ccco2)nc1NCc1ccc(Cl)cc1` [Compound 35] was 14.7 µM. The same measure, in the same setting: in the case of `COc1ccc(C)cc1-n1nnc(-c2nc(-c3ccccc3Cl)no2)c1N` [Compound 16] it was 4.65 µM; in that of `N#CC1Cc2cc3c(cc2N=C1SCC(=O)N1CCOCC1)OCO3` (stereo not drawn) [Compound 121], 0.66 µM.

Regarding `COc1ccc(C2=NN(C(C)=O)C(c3cccs3)C2)cc1OC` (stereo not drawn) [Compound 212], the AC50 is 8.26 µM. For `CC(C)(C)c1ccc(NC(=O)CSc2nnc(-c3[nH]nc4ccccc34)o2)cc1` [Compound 138], the half-maximal activity concentration (AC50) came to 6.56 µM. Same read-out and setting: the value for `Cc1c(Cl)cccc1Nc1nc(N)nc(CSC(=S)N2CCOCC2)n1` [Compound 68] was 18.5 µM. Still for that read-out and setting: in the case of `COCC(=O)n1nc(-c2ccco2)nc1NCc1ccccc1Cl` [Compound 39] it was 16.5 µM; in that of `C/C(=N\N1C(=O)c2ccccc2NC1c1ccccc1)c1ccccc1O` (stereo not drawn) [Compound 192], 2.61 µM. The same measure, in the same setting: in the case of `Cc1ccc(-c2nc(NCc3ccco3)n(S(C)(=O)=O)n2)cc1` [Compound 37] it was 14.7 µM; in that of `CCOC(=O)N1CCN(C(=O)CSCc2ccccc2Cl)CC1` [Compound 160], 16.5 µM; in that of `COc1ccc(-n2nnc(-c3nc(-c4cccs4)no3)c2N)cc1` [Compound 17], 0.58 µM. In the case of `C/C(Cn1cnc([N+](=O)[O-])n1)=N\NC(=O)c1ccccc1` [Compound 236], the AC50 was 20.8 µM. For the compound `Brc1ccc(CSc2nnc3ccccn23)cc1` [Compound 51], the AC50 came to 16.5 µM.

Regarding `COc1ccccc1NC(=O)C/C(C)=N/NC(=O)c1ccccn1` [Compound 188], the AC50 turned out to be 1.85 µM. Turning to `Cc1cccc(-n2nnc(-c3nc(-c4cccs4)no3)c2N)c1C` [Compound 9], the AC50 came out at 0.09 µM.

For `COc1cccc(NC(=O)CSc2nnc(-c3cccs3)o2)c1` [Compound 139], the AC50 stood at 6.56 µM. On to `O=C(c1ccc(Cl)cc1)n1nc(-c2ccccc2)nc1NCc1ccco1` [Compound 36], for which the AC50 came out at 14.7 µM. The same measure, in the same setting: the value for `Clc1ccc(-n2ncc3c(NCc4ccccn4)ncnc32)cc1` [Compound 245] was 5.85 µM. On the same count and under the same terms, in the case of `COCC(=O)Nc1ccc(C(=O)Nc2ccccc2Cl)cc1` [Compound 178] it was 11.7 µM; in that of `CSc1nsc(SCC(=O)N2CCCCC2)n1` [Compound 150], 13.1 µM; in that of `CC1=NN(C(=O)c2ccoc2C)C(O)(C(F)(F)F)C1` (stereo not drawn) [Compound 217], 10.4 µM. The same measure, in the same setting: in the case of `CC1=NN(C(=O)c2ccc(C)o2)C(O)(c2ccccc2)C1` (stereo not drawn) [Compound 231] it was 16.5 µM.

With `COc1ccc(NC(=O)CSc2nc(SC)ns2)c(OC)c1` [Compound 125], the AC50 was 2.07 µM.

Take `Cc1ccsc1/C=N/NC(=O)c1ccc(-n2cccc2)cc1` [Compound 223]: the AC50 stood at 13.1 µM. Still for that read-out and setting: the value for `Cc1cc(C)c(C#N)c(SCC(=O)Nc2nonc2N)n1` [Compound 156] was 14.7 µM; that for `O=C(Cc1cccs1)N/N=C/C(Cl)=C/c1ccccc1` [Compound 193] was 2.93 µM; that for `CCCC(=O)N(CCN1CCOCC1)c1nc2cc(C)c(C)cc2s1` [Compound 120] was 7.36 µM. Same read-out and setting: in the case of `CCC(C)NC(=O)CSc1ccc(Cl)cc1` (stereo not drawn) [Compound 162] it was 18.5 µM; in that of `COc1ccc(NC(=O)C/C(C)=N/NC(=O)c2ccccn2)c(OC)c1` [Compound 187], 1.85 µM; in that of `Cc1cc(C)cc(NC(=O)CSc2nnc(-c3ccccc3C)o2)c1` [Compound 157], 14.7 µM. On the same count and under the same terms, in the case of `COc1nc(NCCO)nc(Nc2ccccc2F)n1` [Compound 59] it was 4.65 µM; in that of `Cc1ccc(NC(=O)Cc2noc3ccccc23)nc1` [Compound 111], 16.5 µM.

`COc1cc(NC(=O)C/C(C)=N/NC(=O)c2ccccn2)c(OC)cc1Cl` [Compound 194]: the AC50 came out at 3.69 µM. On the same count and under the same terms, the value for `Nc1c(-c2nc(-c3ccccc3Cl)no2)nnn1-c1ccccc1F` [Compound 12] was 0.83 µM; that for `CCOc1ccc(NC(=O)CSc2ccc3ccccc3n2)cc1` [Compound 163] was 18.5 µM. Same read-out and setting: the value for `O=C(O)c1ccccc1C(=O)N1N=C(c2ccccc2)CC1c1ccccc1O` (stereo not drawn) [Compound 226] was 14.7 µM. For `COc1ccccc1Nc1nc(N)nc(CSc2nc(C)cc(C)n2)n1` [Compound 70], the AC50 was 18.5 µM. In the case of `O=C(c1cccc([N+](=O)[O-])c1)n1nc(-c2ccccc2)nc1NCc1ccccc1` [Compound 40], the AC50 stood at 16.5 µM. As for `O=C(COc1ccccc1[N+](=O)[O-])N/N=C/c1cccc(OC(=O)c2ccc3c(c2)OCO3)c1` [Compound 173], the AC50 is 18.5 µM.

Consider `Cc1cccc(OCC(=O)Nc2sc3c(c2C#N)CCC3)c1` [Compound 168], for which the AC50 worked out at 6.56 µM.

In the case of `NC(=O)COC(=O)c1ccc2noc(-c3ccccc3)c2c1` [Compound 182], the AC50 is 6.56 µM. Still for that read-out and setting: in the case of `CC(C)c1ccc(CNc2nc(-c3ccco3)nn2C(=O)c2ccc([N+](=O)[O-])cc2)cc1` [Compound 31] it was 2.07 µM; in that of `COc1ccc(OCC(=O)Nc2ccc(-c3nc4cc(Cl)ccc4o3)cc2)cc1` [Compound 167], 2.93 µM; in that of `O=C(CSc1nnc(-c2ccccn2)o1)Nc1ccccc1C(F)(F)F` [Compound 142], 9.27 µM. In the case of `COCc1cc(C)nc(SCC(=O)Nc2ccc3c(c2)OCCO3)c1C#N` [Compound 145], the AC50 amounted to 11.7 µM. The same measure, in the same setting: in the case of `O=C(N/N=C/c1ccc2cccnc2c1)c1nc(O)c2ccccc2n1` [Compound 224] it was 13.1 µM. On the same count and under the same terms, the value for `Cc1cccc(-c2nsc(SCC(=O)Nc3ccc4c(c3)OCO4)n2)c1` [Compound 148] was 13.1 µM. The same measure, in the same setting: the value for `CCOc1ccccc1-n1nnc(-c2nc(-c3ccccc3)no2)c1N` [Compound 23] was 3.69 µM; that for `O=C(CSc1nnc(-c2ccccn2)o1)Nc1cccc(Cl)c1` [Compound 124] was 1.85 µM. With `C/C(CC(=O)NC(C)(C)C)=N\NC(=O)c1ccccc1N` [Compound 200], the AC50 amounted to 5.21 µM.

Regarding `O=C(Cc1cccs1)N/N=C/C=C/c1ccccc1[N+](=O)[O-]` [Compound 204], the AC50 turned out to be 6.56 µM. Same read-out and setting: the value for `Cc1ccc(-c2nnc(SCC(=O)Nc3nccs3)n2N)cc1` [Compound 159] was 16.5 µM.

Turning to `CC(C)N1CCC(=NNC(=O)c2cccs2)CC1` [Compound 206], the AC50 is 6.56 µM.

Take `Cc1cc(C)c2c(N)c(C(=O)Nc3ccccc3C(F)(F)F)sc2n1` [Compound 83]: the AC50 came out at 8.26 µM.

In the case of `Nc1c(-c2nc(-c3cccs3)no2)nnn1-c1cccc(F)c1` [Compound 10], the AC50 amounted to 0.21 µM. Same read-out and setting: in the case of `COc1ccc(NC(=O)c2ccccc2NC(=O)c2ccccc2C(=O)O)c(OC)c1` [Compound 104] it was 18.5 µM; in that of `COCCNC(=O)C(c1cccnc1)N(Cc1ccccc1)C(=O)Cn1nnc2ccccc21` (stereo not drawn) [Compound 58], 13.1 µM; in that of `Cc1cccc(-n2nnc(-c3nc(-c4ccccc4)no3)c2N)c1C` [Compound 20], 1.85 µM.

Staying with this test, now noted: Homo sapiens, Table 12 singletons; read-out: AC50.
With `Nc1c(-c2ccccc2)n[nH]c1-c1ccccc1` [Compound 262], the AC50 amounted to 3.29 µM. `Cc1cc(CC(C)C)n(-c2nc3ccccc3c(=O)n2OCC(N)=O)n1` [Compound 313]: the AC50 was 14.7 µM.

On to `CCC(C)NC(=O)c1ccc2c(c1)S(=O)(=O)c1ccccc1C2=O` (stereo not drawn) [Compound 331], for which the AC50 worked out at 16.5 µM. Same read-out and setting: the value for `COc1cc(O)sc1/C=N/c1ccc(Cl)cc1` [Compound 279] was 7.36 µM; that for `Cc1c(-c2nc(-c3ccc(C(F)(F)F)cc3)no2)n(C)oc1=O` [Compound 250] was 0.29 µM. For `COc1ccc(/C=C/C(=O)NC2CCCCCC2)cc1S(=O)(=O)N1CCOCC1` [Compound 287], the AC50 stood at 10.4 µM. Same read-out and setting: in the case of `CCN(CC)C(=O)CS/C(=N/C#N)Nc1ccccc1F` [Compound 306] it was 14.7 µM; in that of `CC(/C=C/c1ccccc1)=N\N/C(S)=N/C(C)C` [Compound 302], 14.7 µM; in that of `CC(C)N1C(=O)CN(C2CCCCCC2)C(=O)C1c1ccccc1F` (stereo not drawn) [Compound 301], 14.7 µM. Still for that read-out and setting: the value for `CC1(C)Cc2nc3oc4c(S)ncnc4c3cc2CO1` [Compound 295] was 13.1 µM; that for `Fc1cccc(/C=N/N=C(\S)Nc2ccccc2Cl)c1` [Compound 268] was 4.65 µM; that for `CCNc1ccc(/N=N/c2c(C)n(C)n(-c3ccccc3)c2=O)cc1` [Compound 344] was 16.5 µM. For `CCCNC(=O)OCc1cccnc1Sc1ccc(C)cc1` [Compound 319], the AC50 amounted to 16.5 µM. Same read-out and setting: the value for `c1ccc(-c2onc3cc4c(cc23)OCCO4)cc1` [Compound 257] was 2.07 µM. Consider `NC1=NC(=O)/C(=C/c2cn(Cc3ccccc3)c3ccccc23)S1` [Compound 284], for which the AC50 stood at 9.27 µM. As for `Nc1c(Cl)cc2c(c1Oc1ccccc1)C(=O)c1ccccc1C2=O` [Compound 266], the AC50 worked out at 4.14 µM.

Take `COC(=O)c1ccc(CN2C(=O)NC3(CCCCC3)C2=O)cc1` [Compound 320]: the AC50 came out at 16.5 µM. Still for that read-out and setting: the value for `CCCCCc1nc2c(=O)n(C)c3ccccc3c2o1` [Compound 324] was 16.5 µM; that for `O=C(NC1CCCCCC1)C1CCCN(c2ncccn2)C1` (stereo not drawn) [Compound 339] was 18.5 µM.

By AC50 is commonly meant the concentration at which the activity in the assay is half-maximal.
